Experimental data: BindingDB's records for doi:10.7270/Q2ZC817P (The Scripps Research Institute Molecular Screening Center, 2007)
Counter-ions that a name gives are not always drawn.

molecular target: Sphingosine 1-phosphate receptor 1 (Homo sapiens, UniProt P21453); test: potentiators of S1P1 agonist response, dose response, cell-based, potentiator mode, 60K MLSMR set (AID 466); conditions: not given
Sequence (P21453 whole entry): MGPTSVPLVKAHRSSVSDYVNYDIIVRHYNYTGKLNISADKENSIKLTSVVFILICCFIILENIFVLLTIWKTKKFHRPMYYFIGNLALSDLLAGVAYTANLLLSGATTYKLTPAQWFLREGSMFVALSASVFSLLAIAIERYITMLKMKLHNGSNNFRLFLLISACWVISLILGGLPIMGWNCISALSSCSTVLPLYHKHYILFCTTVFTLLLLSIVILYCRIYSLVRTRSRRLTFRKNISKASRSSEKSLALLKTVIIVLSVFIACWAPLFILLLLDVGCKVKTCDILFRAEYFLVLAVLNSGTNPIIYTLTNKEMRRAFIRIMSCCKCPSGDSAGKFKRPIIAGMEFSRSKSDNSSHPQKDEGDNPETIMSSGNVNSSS

SMILES | EC50 [µM]
CN(C)S(=O)(=O)c1ccc(C(=O)Nc2nc(-c3cccs3)cs2)cc1 [4-(dimethylsulfamoyl)-N-(4-thiophen-2-yl-1,3-thiazol-2-yl)benzamide] | > 10
Fc1ccc2[nH]c3c(N4CCN(c5ccccc5)CC4)ncnc3c2c1 | 9.52
Cc1noc(C)c1S(=O)(=O)N(CC(=O)Nc1ccc2c(c1)OCO2)c1ccc(C(C)C)cc1 [MLS000117405] | > 95
CCOc1ccc(C2CC(c3cccc(OC)c3OC)n3nnnc3N2)cc1Cl (stereo not drawn) [5-(3-chloranyl-4-ethoxy-phenyl)-7-(2,3-dimethoxyphenyl)-1,5,6,7-tetrahydro-[1,2,3,4]tetrazolo[1,5-a]pyrimidine] | 68.9
CN(C)CC(C(=O)c1ccccc1)c1ccccc1 (stereo not drawn) [3-(dimethylamino)-1,2-diphenyl-1-propanone;hydrochloride] | 12
CCc1c(C)nc2ncnn2c1NCCc1ccc(OC)cc1 [(6-Ethyl-5-methyl-[1,2,4]triazolo[1,5-a]pyrimidin-7-yl)-[2-(4-methoxy-phenyl)-ethyl]-amine] | 9.1
COc1ccccc1Oc1ccc2c(c1)C(=O)N(c1cccc(O)c1)C2=O [2-(3-hydroxyphenyl)-5-(2-methoxyphenoxy)isoindole-1,3-dione] | 2.14
CC(=N)C(C#N)C(=O)CSc1nnc(SCc2ccc(Cl)cc2)s1 (stereo not drawn) [(E)-3-amino-2-[2-[[5-[(4-chlorobenzyl)thio]-1,3,4-thiadiazol-2-yl]thio]acetyl]but-2-enenitrile] | 9.63
Oc1ccc(C2NCc3ccccc3-n3cccc32)cc1Cl (stereo not drawn) [2-chloranyl-4-(5,6-dihydro-4H-pyrrolo[1,2-a][1,4]benzodiazepin-4-yl)phenol;hydrochloride] | 2.83
CCOC(=O)CN(C(=O)CSc1nnc(-c2cccc(OC)c2)o1)c1ccc(F)cc1 [((4-Fluoro-phenyl)-{2-[5-(3-methoxy-phenyl)-[1,3,4]oxadiazol-2-ylsulfanyl]-acetyl}-amino)-acetic acid ethyl ester] | 2.11
CCc1nnc(NC(=O)C2CCCCC2)s1 [MLS000104554] | > 95
O=S(=O)(NCc1cn2ccsc2n1)c1ccc(Oc2ccccc2)cc1 [MLS000094195] | 5
Cn1c(-c2c(N)n(C3CCCC3)c3nc4ccccc4nc23)nc2ccccc21 [1-cyclopentyl-3-(1-methyl-2-benzimidazolyl)-2-pyrrolo[3,2-b]quinoxalinamine] | 1.56
Nc1ccc(N2CCOCC2)c(Cl)c1 [(3-chloro-4-morpholino-phenyl)amine] | 0.981
CCC(NCCOc1ccc(Cl)cc1)=C1C(=O)N(C)C(=O)N(C)C1=O [5-[1-[2-(4-chlorophenoxy)ethylamino]propylidene]-1,3-dimethyl-1,3-diazinane-2,4,6-trione] | 5.34
CCOc1ccc(-c2nc(-c3ccc(OC)cc3)no2)cc1OCC [5-(3,4-Diethoxy-phenyl)-3-(4-methoxy-phenyl)-[1,2,4]oxadiazole] | 0.732
O=C(CCC(=O)N(Cc1ccco1)C(C(=O)NC1CCCC1)c1ccncc1)Nc1cccnc1 (stereo not drawn) [MLS000033292] | > 95
COc1ccc(-c2noc(-c3cccc(OC)c3OC)n2)cc1OC [5-(2,3-dimethoxyphenyl)-3-(3,4-dimethoxyphenyl)-1,2,4-oxadiazole] | 1.02
CCc1ccc(S(=O)(=O)NCCc2csc(-c3ccccc3)n2)s1 [5-ethyl-N-[2-(2-phenyl-1,3-thiazol-4-yl)ethyl]thiophene-2-sulfonamide] | 8.24
Cc1cc(C(=O)CSc2nnc(-c3cccnc3)n2-c2ccccc2F)c(C)n1C [SMR000064090] | 0.87
CCOC(=O)C1CCN(c2ncnc3c2oc2ccc(Cl)cc23)CC1 [1-(8-chloro-4-benzofuro[3,2-d]pyrimidinyl)-4-piperidinecarboxylic acid ethyl ester] | > 95
Cc1noc(/C=C/N(C)C)c1S(=O)(=O)N1CCN(c2ccccc2)CC1 [(E)-N,N-dimethyl-2-[3-methyl-4-(4-phenylpiperazin-1-yl)sulfonyl-1,2-oxazol-5-yl]ethenamine] | > 95
OC1(c2cccc(C(F)(F)F)c2)CCN(c2ncnc3c2[nH]c2ccc(F)cc23)CC1 [1-(8-fluoranyl-5H-pyrimido[5,4-b]indol-4-yl)-4-[3-(trifluoromethyl)phenyl]piperidin-4-ol] | 4.41
COc1ccccc1-c1cc(C(=O)Nc2ccccc2SC)no1 [5-(2-methoxyphenyl)-N-(2-methylsulfanylphenyl)-1,2-oxazole-3-carboxamide] | 5.75
Oc1c(Cl)cc(Cl)cc1Sc1cc(Cl)cc(Cl)c1O | 1.24
COC(=O)C1=CN(CCCN2CCCC2=O)C=C(C(=O)OC)C1c1ccccc1C(F)(F)F | > 95
Cc1ccccc1-c1nnc(SCc2ccccc2F)o1 [2-[(2-fluorobenzyl)thio]-5-(2-methylphenyl)-1,3,4-oxadiazole] | 1.27
CCN(C(=O)c1ccc(C(C)(C)C)cc1)c1nnc(Cn2nnc3ccccc32)s1 [MLS000072751] | 1.82

same assay, conditions: inactive by the depositor's call

SMILES | EC50 [µM]
CCSc1nc(N2CCOCC2)c2c(c1C#N)CCCC2 [3-(ethylthio)-1-(4-morpholinyl)-5,6,7,8-tetrahydroisoquinoline-4-carbonitrile] | 30.9
CCCOC(=O)c1[nH]c2c(c1C)C(=O)CC(c1cc(OC)c(OC)c(OC)c1)C2 (stereo not drawn) [MLS000116504] | 12.9
COc1ccc(-n2c(C)c(C(C)=O)c3cc(O)ccc32)cc1 [1-[1-(4-methoxyphenyl)-2-methyl-5-oxidanyl-indol-3-yl]ethanone] | 24.2
COc1ccccc1-c1cc(C(=O)Nc2cc(C)nn2-c2ccccc2)no1 [5-(2-methoxyphenyl)-N-(3-methyl-1-phenyl-1H-pyrazol-5-yl)isoxazole-3-carboxamide] | 57.7
CCC(C)OC(=O)c1[nH]c2c(c1C)C(=O)CC(c1ccc(N(C)C)cc1)C2 (stereo not drawn) [MLS000116530] | 18
CC(=O)c1ccc(N2CCN(c3ccc(C(F)(F)F)cn3)CC2)cc1 [1-[4-[4-[5-(trifluoromethyl)-2-pyridinyl]-1-piperazinyl]phenyl]ethanone] | 37
O=C1CC(N2CCN(C/C=C/c3ccccc3)CC2)C(=O)N1CCc1ccccc1 (stereo not drawn) [1-(2-phenylethyl)-3-[4-[(E)-3-phenylprop-2-enyl]-1-piperazinyl]pyrrolidine-2,5-dione] | 19.3
CC1=CC(C)(C)Nc2ccc(OC(=O)c3ccco3)cc21 | 18
COc1ccc(-c2nc(-c3cccc(C(F)(F)F)c3)no2)cc1OC [5-(3,4-dimethoxyphenyl)-3-[3-(trifluoromethyl)phenyl]-1,2,4-oxadiazole] | 18.8
O=C(Nc1nc(-c2ccc3c(c2)OCO3)cs1)c1ccncc1 [MLS000073104] | 12
COc1ccccc1-c1nc(-c2ccc(Br)cc2)no1 [3-(4-bromophenyl)-5-(2-methoxyphenyl)-1,2,4-oxadiazole] | 10.1
Cc1ccc2nc(C(F)(F)F)c(C#N)c(N)c2c1 [4-amino-6-methyl-2-(trifluoromethyl)-3-quinolinecarbonitrile] | 12
COc1ccc(CNc2cc(C)nc3ncnn23)c(OC)c1 [(2,4-Dimethoxy-benzyl)-(5-methyl-[1,2,4]triazolo[1,5-a]pyrimidin-7-yl)-amine] | 16
COc1cccc(-c2nc(-c3ccc(NC(=O)c4cccnc4)cc3)no2)c1 [MLS000047254] | 22.1
CCCOC(=O)c1ccc(OCC(O)Cn2c(C)nc3ccccc32)cc1 (stereo not drawn) [4-[2-hydroxy-3-(2-methyl-1-benzimidazolyl)propoxy]benzoic acid propyl ester] | 10
